Measurements: US12128035B2, “Activating pyruvate kinase R” (Novo Nordisk Health Care AG, priority 2021, dated 2024)
Several values for one entry are separate records, joined by “and”; a condition that tells them apart may be missing. Equal values may be shown once.

How the values were obtained:
Human SCD cells = assay: Ex vivo sickling under hypoxic conditions; format: cell-based; conditions: for Net % of Sickled Cells / % Protection: 10 μM
Protocol: Red blood cells from SCD patients were used to evaluate the effects of Compound 1 on Hgb affinity for oxygen (i.e., oxygen affinity) and sickling under hypoxic conditions. Cells were incubated at 37° C. for 1, 2, and 3 hr with HEPES buffered saline (HBS) (untreated), HBS+dimethyl sulfoxide (DMSO) (vehicle), or 10 μM Compound 1. To assess oxygen dissociation, Hgb oxygen equilibrium curves were collected during deoxygenation.
Compound 1 (10 μM) reduced cell sickling under severe hypoxic conditions of 2% oxygen (PO2 of <20 mmHg) for up to 20 min (Table 8).

[1] = Phase 1: hematologic and hemolytic laboratory parameters in SCD patients; format: in vivo, human
Text: Laboratory changes relative to pretreatment for each pt in the MD cohort as of Jul. In 2 of 3 SCD MD-1 pts treated with Compound 1/placebo (currently blinded), Hb increased by >1 g/dL, % reticulocytes decreased, and markers of hemolysis were improved after 14 days of treatment (compared to pre-treatment levels). Hematologic parameters returned to pre-treatment levels 4 to 7 days post-treatment (data not shown) without clinical AEs.
A median 1.2 g/dL Hb increase (range 0, 2.3) and a median 60% reticulocyte decrease (range −39%, −81%) over baseline were observed. The onset of the increase in Hb was rapid and continued to increase in most patients through the end of treatment, indicating the potential for additional improvement with extended dosing. […] A median 36% LDH decrease (range +18%, −57%) and a median 35% bilirubin decrease (range −7%, −63%) over baseline were observed, which is consistent with the hypothesis that Compound 1 improves RBC survival and reduces RBC turnover.

[2] = Phase 1 SAD/MAD: plasma pharmacokinetics in healthy volunteers; format: in vivo, human; conditions: 14 days of dosing in healthy subjects
Text: This is a first-in-human (FIH), Phase 1 study of Compound 1 that will characterize the safety, PK, and PD of Compound 1 after a single dose and after repeated dosing first in healthy adult volunteers and then in adolescents or adults with sickle cell disease. Initially, a dose range of Compound 1 in single ascending dose (SAD) escalation cohorts will be explored in healthy subjects. Enrollment of healthy subjects into 2-week multiple ascending dose (MAD) escalation cohorts will be initiated once the safety and PK from at least two SAD cohorts is available to inform the doses for the 2-week MAD portion of the study. The MAD cohorts will then run in parallel to the single dose cohorts. A single dose cohort is planned to understand food effects (FE) on the PK of Compound 1. […]
In this study, SAD/MAD cohorts are randomized (3 to 1) to receive Compound 1 or placebo (P). Compound 1 was evaluated first in 4 healthy SAD cohorts and 4 healthy MAD (14-day dosing period) cohorts. Based on the safety, and PK/PD profile from HS, Compound 1 is then evaluated in 1 SCD SAD cohort and 2 SCD MAD cohorts. Specifically, based on the safety and pharmacokinetic/pharmacodynamics (PK/PD) profile in healthy volunteer studies, Compound 1 is evaluated in patients (pts) with SCD, first in a single dose (SD or SAD) cohort and then in multiple-dose (MD or MAD) cohorts (14-day and 12-week). […]

[3] = SCD MAD1, 300 mg once daily 14 days, of 7 patients

SMILES: O=C([C@H](CO)c1ccccc1)N1CC2=C(C1)CN(S(=O)(=O)c1cnc3c(c1)OCCO3)C2 (single isomer, unassigned) [Compound 1]
- Net % of Sickled Cells (Human SCD cells; 0 min in hypoxic conditions (DMSO 7)): 10%
- % Protection (Human SCD cells; 2 min in hypoxic conditions): −15%
- Net % of Sickled Cells (Human SCD cells; 2 min in hypoxic conditions (DMSO 41)): 47%
- % Protection (Human SCD cells; 5 min in hypoxic conditions): 14%
- Net % of Sickled Cells (Human SCD cells; 5 min in hypoxic conditions (DMSO 57)): 49%
- % Protection (Human SCD cells; 10 min in hypoxic conditions): 11%
- Net % of Sickled Cells (Human SCD cells; 10 min in hypoxic conditions (DMSO 61)): 54%
- % Protection (Human SCD cells; 15 min in hypoxic conditions): 16%
- Net % of Sickled Cells (Human SCD cells; 15 min in hypoxic conditions (DMSO 68)): 57%
- Net % of Sickled Cells (Human SCD cells; 20 min in hypoxic conditions (DMSO 71)): 60%
- % Protection (Human SCD cells; 20 min in hypoxic conditions (last time point)): 15%
- percent protection (maximum) (Human SCD cells; severe hypoxic conditions of 2% oxygen): up to 16%
- patients with >1 g/dL increase in hemoglobin ([1]; SCD MAD1, 300 mg once daily 14 days): 6/7
- median Hb increase over baseline ([1]; SCD MAD1, 300 mg once daily 14 days (n = 7), range 0, 2.3): 1.2 g/dL
- patients with a decrease in reticulocytes [1, 3]: 7 and 7/7
- patients with a decrease in total bilirubin [1, 3]: 7
- median LDH decrease over baseline ([1]; SCD MAD1, 300 mg once daily 14 days, range +18%, −57%): 36%
- median bilirubin decrease over baseline ([1]; SCD MAD1, 300 mg once daily 14 days, range −7%, −63%): 35%
- median reticulocyte decrease over baseline ([1]; SCD MAD1, 300 mg once daily 14 days, range −39%, −81%): 60%
- increase in Hb compared with pre-dose on day 1 ([1]; one SCD patient, 300 mg once daily, sustained through day 21, no hydroxyurea): > 2 g/dL
- clearance on day 1 and day 14 [2]: unchanged
